The values that follow are results of earlier work, collected in article PMC9847679, “The anti-breast cancer stem cell properties of gold(I)-non-steroidal anti-inflammatory drug complexes” (Chemical Science, 2022).

What all share (set-up): method as in PMID 26806362, PMID 31209956, PMID 28932846
One data set deals with HMLER-shEcad cells. The settings on record: cited from earlier work.
Another data set concerns HMLER cells. The settings on record: cited from earlier work.
The test system of data set [1] is HMLER-shEcad mammospheres. The settings on record: read-out: Mammosphere IC50; cited from earlier work.

Consider `N.N.[Cl][Pt][Cl]` [Cisplatin, cisplatin], for which the figures for the IC50 (with HMLER-shEcad cells; in the data set on HMLER cells; in data set [1]) were 5.65 ± 0.304 µM, 2.565 ± 0.021 µM and 14 ± 2 µM, respectively.

Broadly, the IC50 is the concentration needed to halve the response being measured.
